“And” between values parts separate entries of the source, which are not always exact repeats. Equal entries are not always repeated.
How the values were obtained:
[1] = biological target: Vertebrate P2X3 and P2X2/3 PRs; settings: cited from earlier work
Amblyomma hebraeum = assay: Glass capillary feeding of partly fed female ticks, Amblyomma hebraeum; format: in vivo; settings: females
Text: I. ricinus adults were prefed for 3-4 days and A. hebraeum adults for 10 days on a membrane over bovine blood (Kröber T. and Guerin P. M., 2007, supra). Partly fed I. ricinus and A. hebraeum, freshly detached from the membrane, were tightly fixed by the scutum and alloscutum to double-sided adhesive tape (Tesafix® 4964, Beiersdorf, Hamburg, Germany) on a glass slide and secured with plasticine. Test compounds were fed to these partly-fed female ticks using borosilicate capillary tubes (Clark GC120-10, 0.69 mm i.d., 1.2 mm o.d., 50 mm long; Clark Electromedical Instruments, Pangbourne, Reading, UK) with drawn out tips adapted to fit around the mouthparts of individual ticks. Feeding capillaries were filled with a solution of 100 mM NaCl, 8.9 mM NaHCO3 with 1000 μM ATP added, hereafter termed tick feeding solution (TFS) that served as positive control in each feeding experiment. PR antagonists were added to the TFS and pH of the solution was adjusted to 7.2-7.8. Capillary-fed ticks were kept in a plastic box on a warm plate at 34° C. and 80% RH using wet paper. After 1 h, the amount of solution imbibed by a tick was indicated by the drop of the meniscus in the capillary and measured using Vernier callipers and converted to mg. […]

Ixodes ricinus = assay: Glass capillary feeding of partly fed female ticks, Ixodes ricinus; format: in vivo; settings: for Fluid intake, Median (mg): females, glass capillary
Text: I. ricinus adults were prefed for 3-4 days and A. hebraeum adults for 10 days on a membrane over bovine blood (Kröber T. and Guerin P. M., 2007, supra). Partly fed I. ricinus and A. hebraeum, freshly detached from the membrane, were tightly fixed by the scutum and alloscutum to double-sided adhesive tape (Tesafix® 4964, Beiersdorf, Hamburg, Germany) on a glass slide and secured with plasticine. Test compounds were fed to these partly-fed female ticks using borosilicate capillary tubes (Clark GC120-10, 0.69 mm i.d., 1.2 mm o.d., 50 mm long; Clark Electromedical Instruments, Pangbourne, Reading, UK) with drawn out tips adapted to fit around the mouthparts of individual ticks. Feeding capillaries were filled with a solution of 100 mM NaCl, 8.9 mM NaHCO3 with 1000 μM ATP added, hereafter termed tick feeding solution (TFS) that served as positive control in each feeding experiment. PR antagonists were added to the TFS and pH of the solution was adjusted to 7.2-7.8. Capillary-fed ticks were kept in a plastic box on a warm plate at 34° C. and 80% RH using wet paper. After 1 h, the amount of solution imbibed by a tick was indicated by the drop of the meniscus in the capillary and measured using Vernier callipers and converted to mg.
Uptake of TFS containing PR antagonists, converted to mg/h for hard ticks and weight gains in mg/25 min for soft ticks, was compared to TFS uptake in the corresponding positive controls. […] For tsetse and horn flies the percentage flies that fed per antagonist treatment served as the criterion for inhibition of feeding. As horn fly sexes emerged within 24 h, both sexes were assumed to show the same degree of appetence. In tsetse, males emerged first so a gender-related appetence could not be excluded. No sex-related feeding differences in feeding were found for testse (GLM, P>0.05) so data for the sexes were pooled. Comparisons of percentage fed flies were made using a Bayesian GLM—the most appropriate model considering the zero-inflated distributions shown by the data sets. […]

[2] = system: A. gambiae labellum ATP-sensitive receptor; assay: Effects of metal ions on electrophysiological responses to ATP; format: cell-based, Anopheles gambiae
Procedure: The tip recording method was used to record action potentials (spikes) from sensory cells in sensilla on A. gambiae labellum lobes.
Sensilla were exposed to test compounds and PR antagonists for ca. 2-4 s and spikes were counted in the first 2 s of recordings. Up to 4 test compounds were tested on a sensillum to evaluate potential agonists, each presented at 200 pM. To study responses as a function of dose for agonists ATP, adenosine, AMP, AMP-CPP and ATP+adenosine, up to 7 recordings were made at increasing doses of agonist from the same sensillum. […]
Pairwise comparisons of A. gambiae electrophysiological (EP) responses to ATP and adenosine alone and combined with a given dose of PR antagonist, EP responses to ATP alone and combined with a given dose of a metal modulator, and EP responses to ATP prior to and after exposure of a sensillum to a given dose of a PR antagonist were made with a one-tailed Wilcoxon signed-rank test for data showing a non-normal distribution, with a paired Student's t-test for normally distributed data showing homogeneous variance and with a Welch's t-test for normally distributed data showing non-homogeneous variance. […] Percent feeding inhibition induced by PR antagonists in A. stephensi was calculated using Abbott's formula.

For `O=C(O)c1cc(C(=O)O)c(C(=O)N(Cc2cccc(Oc3ccccc3)c2)[C@H]2CCCc3ccccc32)cc1C(=O)O` [A-317491, 5-[(3-phenoxyphenyl)methyl-[(1S)-1,2,3,4-tetrahydronaphthalen-1-yl]carbamoyl]benzene-1,2,4-tricarboxylic acid], the Kd ([1]; Jarvis et al., 2002) is given as 0.9 nM, the “Fluid intake, Median (mg)” value (Amblyomma hebraeum; TFS + 1 μM) is given as 6.7 mg/h and the “Fluid intake, Median (mg)” value (Ixodes ricinus; TFS + 1 μM) is given as 1.5 mg/h. For the same compound, the “effect on feeding on solution containing ATP, in words” value (Ixodes ricinus; doses as in Table 9) was “inhibited feeding”.

For `Nc1ncnc2c1ncn2[C@@H]1O[C@H](COP(=O)(O)OP(=O)(O)OP(=O)(O)O)[C@@H](O)[C@H]1O` [ATP, Adenosine 5′-triphosphate], the affinity [1] is given as < 1 nM, the “Mean no. of spikes per 2 s (±s.e.m.)” value ([2]; 100 pM ATP alone) is given as 3 ± 1.67 spikes per 2 s and the “Mean no. of spikes per 2 s (±s.e.m.)” value ([2]; 200 pM ATP alone) is given as 24.8 ± 4.84 spikes per 2 s and 28.12 ± 3.5 spikes per 2 s.

For `Cc1ccc(C(=O)Nc2ccc(S(=O)(=O)O)c3cc(S(=O)(=O)O)cc(S(=O)(=O)O)c23)cc1NC(=O)c1cccc(NC(=O)Nc2cccc(C(=O)Nc3cc(C(=O)Nc4ccc(S(=O)(=O)O)c5cc(S(=O)(=O)O)cc(S(=O)(=O)O)c45)ccc3C)c2)c1` [Suramin], the “Fluid intake, Median (mg)” value (Amblyomma hebraeum; TFS + 500 μM) was 4.5 mg/h and the “Fluid intake, Median (mg)” value (Ixodes ricinus; TFS + 500 μM) was 1.9 mg/h.
